Measurements as given in patent US20240316047A1, “INHIBITORS OF RNA HELICASE DHX9 AND USES THEREOF” (ACCENT THERAPEUTICS, INC., priority 2022, published 2024).

Target: Human recombinant DHX9 protein (Homo sapiens (Human), UniProt Q08211)
Assay: DHX9 ATPase assay (ADP-Glo)
Assay type: biochemical
Conditions: for IC50: read-out: DHX9 Biochemical Inflection Point

Chain of Human recombinant DHX9 protein (Q08211 whole entry): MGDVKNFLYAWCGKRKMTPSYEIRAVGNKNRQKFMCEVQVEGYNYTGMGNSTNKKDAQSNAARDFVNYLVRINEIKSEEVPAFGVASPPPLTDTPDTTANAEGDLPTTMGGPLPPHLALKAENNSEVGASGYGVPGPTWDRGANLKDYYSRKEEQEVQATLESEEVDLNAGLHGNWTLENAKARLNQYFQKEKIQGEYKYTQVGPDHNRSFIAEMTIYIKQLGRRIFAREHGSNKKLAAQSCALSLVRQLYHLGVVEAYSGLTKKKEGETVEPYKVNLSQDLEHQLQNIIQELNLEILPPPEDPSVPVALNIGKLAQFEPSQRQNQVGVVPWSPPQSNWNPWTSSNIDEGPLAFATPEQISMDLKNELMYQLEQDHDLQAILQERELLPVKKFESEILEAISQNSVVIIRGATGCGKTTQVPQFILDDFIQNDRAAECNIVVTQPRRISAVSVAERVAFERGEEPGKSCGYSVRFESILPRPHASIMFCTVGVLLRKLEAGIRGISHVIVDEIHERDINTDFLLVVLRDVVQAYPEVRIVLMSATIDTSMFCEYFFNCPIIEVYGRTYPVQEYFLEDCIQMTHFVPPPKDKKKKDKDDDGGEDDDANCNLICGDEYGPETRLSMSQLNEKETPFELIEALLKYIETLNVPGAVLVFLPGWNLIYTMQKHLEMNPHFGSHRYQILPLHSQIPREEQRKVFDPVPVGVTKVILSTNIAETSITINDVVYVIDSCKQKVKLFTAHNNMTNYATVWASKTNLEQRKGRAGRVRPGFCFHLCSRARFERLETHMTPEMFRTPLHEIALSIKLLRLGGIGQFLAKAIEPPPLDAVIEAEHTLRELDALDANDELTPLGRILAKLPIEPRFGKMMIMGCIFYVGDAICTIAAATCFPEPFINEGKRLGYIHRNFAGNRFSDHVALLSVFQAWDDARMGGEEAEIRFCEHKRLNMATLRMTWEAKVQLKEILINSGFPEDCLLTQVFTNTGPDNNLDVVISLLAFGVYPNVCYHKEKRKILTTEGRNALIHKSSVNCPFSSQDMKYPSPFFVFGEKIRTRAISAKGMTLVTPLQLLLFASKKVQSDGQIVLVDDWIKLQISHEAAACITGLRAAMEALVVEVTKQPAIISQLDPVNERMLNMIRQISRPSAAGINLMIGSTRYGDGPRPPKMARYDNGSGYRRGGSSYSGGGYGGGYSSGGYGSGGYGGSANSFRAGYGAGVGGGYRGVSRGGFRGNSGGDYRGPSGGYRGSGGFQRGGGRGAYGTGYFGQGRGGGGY

| DHX9 Biochemical Max Inhibition | IC50 [nM] | Structure (SMILES) |
| --- | --- | --- |
| 82.8 | 15.5 | COc1ccc(-c2cc(C(=O)Nc3cc(Cl)cc(NS(C)(=O)=O)c3)cn2C)nc1 [Example 573] |
| 95 | 17.7 | Cc1cc(C(=O)Nc2cc(Cl)cc(NS(C)(=O)=O)c2)cn1-c1ncc(N2CC(F)(F)C2)cc1F [Example 420] |
| 69.3 | 32.1 | Cc1sc(C(=O)Nc2cc(Cl)cc(NS(C)(=O)=O)c2)cc1-c1ncc(S(C)(=O)=O)cn1 [Example 711] |
| 80.8 | 1.9 | Cc1cc(C(=O)Nc2cc(Cl)cc(NS(C)(=O)=O)c2)cn1-c1ncc(OC2COC2)cn1 [Example 669] |
| 74.3 | 10.9 | Cc1sc(C(=O)Nc2cc(Cl)cc(NS(C)(=O)=O)c2)cc1-c1ncc(N2CCC3(COC3)C2)cc1F [Example 512] |
| 70% | 131 | Cc1cc(C(=O)Nc2cc(Cl)cc(NS(=O)(=O)C3CC3)c2)cn1-c1ccc(N2CCOCC2)cn1 [Example 247] |
| 88.6% | 44.3 | Cc1sc(C(=O)Nc2cc(Cl)cc(NS(C)(=O)=O)c2)cc1-c1c(F)cncc1F [Example 362] |
| 73.1% | 9.4 | Cn1cc(C(=O)Nc2cc(Cl)cc(NS(C)(=O)=O)c2)cc1-c1ncc(F)cc1OCc1cnco1 [Example 268] |
| 73.6 | 19 | COc1cnc(-c2cc(C(=O)Nc3cc(Cl)cc(NS(C)(=O)=O)c3)cn2C)nc1 [Example 549] |
| 78.1% | 35.1 | Cc1cccnc1-c1cc(C(=O)Nc2cc(F)cc(NS(C)(=O)=O)c2)sc1C [Example 333] |
| 72.9% | 4.7 | CS(=O)(=O)Nc1cc(Cl)cc(NC(=O)c2cnn(-c3ncc(N4CC5(COC5)C4)cc3OCc3cc(F)cc(F)c3)c2)c1 [Example 258] |
| 67.6% | 422 | Cc1cc(C)c2cc(C(=O)Nc3cc(Cl)cc(NS(C)(=O)=O)c3)cn2c1 [Example 328] |
| 60.9 | 211 | Cn1cc(C(=O)Nc2cc(Cl)cc(NS(C)(=O)=O)c2)cc1-c1ncc(N2CCC(C(F)(F)F)CC2)cc1F [Example 472] |
| 67.2% | 378 | CCS(=O)(=O)Nc1cc(F)cc(NC(=O)c2cc(Br)cs2)c1 [Example 72] |
| 75.8% | 1.8 | Cn1cc(C(=O)Nc2cc(Cl)cc(NS(C)(=O)=O)c2)cc1-c1ncccc1OCc1cncc(F)c1 [Example 174, N-(3-chloro-5-(methylsulfonamido)phenyl)-5-(3-((5-fluoropyridin-3-yl)methoxy)pyridin-2-yl)-1-methyl-1H-pyrrole-3-carboxamide] |
| 65.9 | 23.5 | CC(=O)N1CCN(c2cc(F)cnc2-c2cc(C(=O)Nc3cc(Cl)cc(NS(C)(=O)=O)c3)sc2C)CC1 [Example 504] |
| 73.6% | 8.4 | CCS(=O)(=O)Nc1cc(Cl)cc(NC(=O)c2cc(-c3ncc(F)cc3C)cs2)c1 [Example 226] |
| 84.2 | 3.4 | COc1cc(N2CC(F)(F)C2)cnc1-c1cc(C(=O)Nc2cc(Cl)cc(NS(C)(=O)=O)c2)sc1C [Example 535] |
| 70.4 | 14.6 | Cn1cc(C(=O)Nc2cc(Cl)cc(NS(C)(=O)=O)c2)cc1-c1ncc(OC2CN(CC(F)F)C2)cc1F [Example 614] |
| 74.1% | 21 | CCS(=O)(=O)Nc1cc(Cl)cc(NC(=O)c2cc(-c3ncc(F)cn3)c(C)s2)c1 [Example 344] |

| DHX9 Biochemical Max Inhibition | IC50 [nM] | Structure (SMILES) |
| --- | --- | --- |
| 59% | 1610 | CS(=O)(=O)Nc1cc(Cl)cc(NC(=O)c2cc3ccc(F)cc3s2)c1 [Example 294] |
| 67.3 | 19.8 | CN1CC[C@H](Oc2cnc(-c3cc(C(=O)Nc4cc(Cl)cc(NS(C)(=O)=O)c4)cn3CC(F)(F)F)nc2)C1 [Example 642] |
| 69.2% | 24.2 | CCS(=O)(=O)Nc1cc(Cl)cc(NC(=O)c2cc(-c3ncc(OC)cn3)c(C)s2)c1 [Example 353] |
| 70.6% | 21.2 | Cc1sc(C(=O)Nc2cc(Cl)cc(NS(C)(=O)=O)c2)cc1-c1ccc(C#N)cn1 [Example 377] |
| 78.1% | 83.8 | Cc1sc(C(=O)Nc2cc(Cl)cc(NS(C)(=O)=O)c2)cc1-c1ncccc1CC(=O)N(C)C [Example 385] |
| 72.8% | 14.8 | Cc1sc(C(=O)Nc2cc(Br)cc(NS(C)(=N)=O)c2)cc1-c1ccccn1 (stereo not shown) [Example 123] |
| 57.3 | 163 | Cc1sc(C(=O)Nc2cc(Cl)cc(NS(=O)(=O)CCO)c2)cc1-c1ncc(N2CC(C(F)(F)F)C2)cc1F [Example 529] |
| 63.8% | 307 | CS(=O)(=O)Nc1cc(Cl)cc(NC(=O)c2cc3cc(F)ccc3s2)c1 [Example 295] |
| 80.9% | 874 | Cc1sc(C(=O)Nc2cc(Cl)cc(NS(C)(=O)=O)c2)cc1-c1c(F)cc(F)cc1F [Example 378] |
| 61.5% | 4830 | CS(=O)(=O)Nc1cc(Cl)cc(NC(=O)c2cc3c(Cl)cccc3s2)c1 [Example 332] |
| 62.3% | 113 | CS(=O)(=O)Nc1cc(Cl)cc(NC(=O)c2cnn(-c3ncccc3OCc3ccc(F)cc3)c2)c1 [Example 69] |
| 72.1 | 11.4 | Cc1cc(C(=O)Nc2cc(Cl)cc(NS(C)(=O)=O)c2)cn1-c1ccc(N2CC(F)(F)C2)cn1 [Example 399] |
| 69.6 | 17.5 | Cc1sc(C(=O)Nc2cc(Cl)cc(NS(C)(=O)=O)c2)cc1-c1ncc(N2CCC(F)(F)C2)cn1 [Example 479] |
| 54.4% | 395 | CS(=O)(=O)Nc1cc(Cl)cc(NC(=O)c2cc(-c3ccccc3)c[nH]2)c1 [Example 8] |
| 59.1% | 399 | Cc1cccc2cc(C(=O)Nc3cc(Cl)cc(NS(C)(=O)=O)c3)cn12 [Example 304] |
| 61.7 | 17.4 | Cn1cc(C(=O)Nc2cc(Cl)cc(NS(C)(=O)=O)c2)cc1-c1ncc(N2CCC(F)(F)C2)cn1 [Example 526] |
| 78.7% | 17.7 | CN(C)C(=O)c1cccnc1-c1csc(C(=O)Nc2cc(Cl)cc(NS(C)(=O)=O)c2)c1 [Example 222] |
| 40.3% | 47.4 | CS(=O)(=O)Nc1cc(Br)cc(NC(=O)c2cnn(-c3ccc(C#N)cn3)c2)c1 [Example 41] |
| 71.2 | 95 | CS(=O)(=O)Nc1cc(Cl)cc(NC(=O)c2cc(C(=O)N3CCCCC3)n(-c3ccccn3)c2)c1 [Example 644] |

| Structure (SMILES) | DHX9 Biochemical Max Inhibition | IC50 [nM] |
| --- | --- | --- |
| CS(=O)(=O)Nc1cc(Cl)cc(NC(=O)c2cnn([C@@H]3CCCC[C@H]3O)c2)c1 (relative stereo) [Example 150, N-(3-chloro-5-(methylsulfonamido)phenyl)-1-(trans-2-hydroxycyclohexyl)-1H-pyrazole-4-carboxamide] | 65.9% | – |
